Measurements from PMC7409197, “Adenosine Receptors as Neuroinflammation Modulators: Role of A1 Agonists and A2A Antagonists” (Cells, 2020).

Tests used:
mixed glial cells [1] = test: MTS cell viability in cytokine cocktail (CK) inflammatory model, mixed glial cells; type: cell-based, rat
Protocol: Newborn male Wistar rats were sacrificed and mixed glial cell cultures were obtained from the cerebral cortices. Cerebral cortices were dissected, and meninges were cleared away. Tissues were treated with trypsin solution (trypsin 0.05% (w/v) trypsin-EDTA 5 mM) for 25 min at 37 °C. The tissue was fully disaggregated by pipetting and the dissociated cells were seeded in a 6-well plate with Dulbecco’s modified Eagle’s/High glucose medium enriched with 100 U/mL penicillin, 100 µg/mL streptomycin and 10% FBS. Fresh medium was changed the next day and then every 3 days decreasing the quantity of FBS. All experiments were carried out after 7–9 days of plating.
Mixed glial cell cultures were divided into 2 groups, one to study A1AR partial agonists and another for A2AAR antagonists. Cells from the first group were pre-treated with 2 µL at three different concentrations of C1 for 15, 30 or 60 min and then with further addition of a pro-inflammatory cocktail of cytokines (TNF-α, 20 ng/mL; IL-1β, 20 ng/mL; IFN-γ 20 ng/mL) for 48 h. […] To study C2 cells were pre-treated with the same CK cocktail for 48 h and then with 2 µL of C2 at three different concentrations for 15, 30, or 60 min (Scheme 1). ZM241385, a well known A2AAR antagonist, was used as reference compound. Furthermore, ligands and CK were tested alone for 15, 30 or 60 min and 48 h respectively.
(§1) 1.7 × 10^4 mixed glial cells were cultured in 98 μL of the specific medium in a 96 well plate overnight. The next day 2 μL of ligand or CK cocktail were added to the well. After all treatments, 20 µL of CellTiter 96® AQueous One Solution Reagent was added in a final volume of 100 µL. Absorbance was read at 490 nm using the plate reader GENiosPro. Cell viability was calculated as percentage using the following formula: Cell viability =OD mean of treated cells/OD mean of control cells × 100

neuronal cells = test: Cell viability in primary neuronal cells with or without CK and AR antagonists; type: cell-based, rat; settings: for protection of neurons against neuroinflammatory insult (cell viability): 30 min, with CK
Protocol: Neurons were obtained from hippocampus or cortex of embryos. Briefly, pregnant rat was scarified and the uterus removed. Embryos were taken out from the uterus and brains were obtained. After removing the meninges, hippocampus and cortex were dissected and homogenated with tweezers. The result was incubated with trypsin for 15 min at 37 °C and then centrifuged 2 min at 1000 rpm. The pellet was resuspended with 15 mL of HBSS/0.37% Glucose/30% FBS and centrifuged as before for three times. Finally, the pellet was resuspended with 15 mL of neurobasal media supplemented with 25 µM of glutamine. The result was filtered and plated. Cells were plated in 24 well plates at 10^5 cells/well [26].
as §1

mixed glial cells [2] = test: Griess assay (nitrite production) in mixed glial cells; type: cell-based, rat; settings: 30 min
Protocol: To test the antioxidant capacity of these new molecules Griess assay was performed. The Griess Reagent System is based in the conversion of sulphanilamide into an azo-compound with the presence of N-1-napthylenediamide dihydrochloride (NED) under acidic condition. 1.7 × 10^4 mixed glial cells were cultured in 98 μL of the specific medium in a 96 well plate overnight. After 24 h the media from each well of the cell culture was transferred into a 96 well plate and then 50 µL of the sulphanilamide solution was added to each well. After 5–10 min of incubation at room temperature (rt), 50 µL of the NED Solution were dispensed to all wells and they were incubated at rt for other 5–10 min. Absorbance was measured within 30 min in the plate reader GENiosPro with a filter between 520 nm and 550 nm. This experiment was performed 3–5 replicates. Concentration of NO¬¬¬¬2¯ in each sample was determined by comparison to a Nitrite standard reference curve.

mixed glial cells [3] = test: Hoechst assay, cell area and circularity in mixed glial cells; type: cell-based, rat; settings: compound 1 pre-treatment, compound 2 post-treatment, with CK cocktail
Protocol: This assay was carried out using Hoechst 33258. 6 × 10^5 mixed glial cells were seeded in a six well plate. After 24 h the media was eliminated, and cell cultures washed with PBS. Then, they were washed with acetic acid/methanol solution 50:50, again washed with PBS and incubated 10 min with a fixative solution. After this, cells were cleaned with distilled water and incubated light protected for 30 min at rt with Hoechst (1 µg/mL). Finally, the dye was discarded, and cells washed with water. Glycerol solution was added and cells were observed under an Olympus microscope. The cell area and circularity were measured using ImageJ as image analyzing software. Area and circularity were calculated as percentage using the following formula:(1) Area or circularity =area or circularity of treated cells/area or curcularity of control cells × 100

Sprague Dawley rats = test: Y Maze short-term memory in LPS neuroinflammation rat model; type: in vivo; settings: for short-term memory impairment by LPS (novel arm preference, Y Maze) / short-term memory performance, compound alone (Y Maze): rats; for short-term memory performance, compound alone (Y Maze): saline instead of LPS
Protocol: Animal procedures were performed in accordance with the European Community guidelines (Directive 2010/63/EU), Portuguese law on animal care (DL 113/2013), and approved by the Instituto de Medicina Molecular Internal Committee and the Portuguese Animal Ethics Committee (Direcção Geral de Veterinária). Environmental conditions were kept constant: food and water ad libitum, 21 ± 0.5 °C, 60% ± 10% relative humidity, 12 h light/dark cycles, 3–5 rats per double-decker ventilated cage. Male Sprague Dawley rats 8 weeks old were divided into the following groups (Table 1):
C1 was dissolved in 5% DMSO + 95% H2O to a final concentration of 7 mg/mL and C2 was dissolved in DMSO to a final concentration of 5 mg/mL. Accordingly, vehicle for G1 was 5% DMSO + 95% H2O and for G2 was DMSO.
Animals were anesthetized with a cocktail of 75 mg/kg ketamine + 1 mg/kg dexmedetomidine. Once rats were deeply anesthetized, the head was fixed into a stereotaxic frame and an incision made on the scalp to expose the skull. Coordinates for injection were AP -1.0, ML ± 1.5, DV -3.7 mm. For G1, LPS was delivered bilaterally 5 µL of a 1 µg/µL LPS solution per hemisphere, and C1 was delivered also i.c.v. 15 min before the LPS injection, 5 µL of a 7 µg/µL solution. Flow rate was kept at 1 µL/min, using an automatic injector coupled to a 10 µL hamilton syringe gauge 30. After each injection, 5 min were allowed for diffusion of the drugs before slowly removing the needle. After the procedure, rats were sutured, administered atipamezole (1 mg/kg) to reverse anesthesia, and brought back to a heated cage until fully recovered. For G2, rats were injected i.p. with a 2.5 mg/kg solution of C2, 30 min after the i.c.v. injection of LPS 5 µg/5 µL per hemisphere, in total of 10 µg. Rats were monitored for sickness behavior (body temperature, general activity) and given access to gel food in the first 48 h.
Y Maze is a behavior test useful to measure short-term spatial working memory. Animals are introduced in the maze always in the same starting position, at the end of the start arm. An initial habituation phase of 8 min, animals freely explore 2 of the arms, the 3rd being closed. Sixty minutes after the habituation period animals are placed again in the maze for 5 min this time with all 3 arms available to exploration. Using the Smart video tracing software, each animal’s route was registered. The time spent in the arm initially closed, which for the animal is the novel, unexplored environment, is calculated in relation to the time spent in the already familiar arms.

With `OC[C@H]1O[C@@H](n2cnc3c(NC4CCCC4)nc(Cl)nc32)C[C@@H]1O` [Compound C1, 2-chloro-N^6-cyclopentyl-2′-deoxyadenosine] the “cell viability vs. control” value (mixed glial cells [1]; pre-treatment 5.5 µM for 30 min, then CK cocktail 48 h) was 113 ± 3.1%, the “prevention of CK aggression (cell viability, words)” value (mixed glial cells [1]; pre-treatment before CK cocktail 48 h, C1 2-30 µM, CCPA 10 nM 30 min) was “able to prevent the CK aggression” and the “protection of neurons against neuroinflammatory insult (cell viability)” value (neuronal cells; C1 5.5 µM, C2 10 nM) was “beneficial effects in protecting neurons”. For the same compound, the “cell viability, effect against A1AR antagonist DPCPX” value (neuronal cells; neurons, C1 5.5 µM, DPCPX 100 nM, in presence of CK) was “partially counteract the effect of DPCPX”, the “antioxidant activity (Griess)” value (mixed glial cells [2]; 5.5 µM, alone and in combination with CK) was “did not show any antioxidant activity” and the “cell area and circularity (Hoechst), effect against CK aggression” value (mixed glial cells [3]) was “protective effect”. For the same compound, the “short-term memory impairment by LPS (novel arm preference, Y Maze)” value (Sprague Dawley rats; i.c.v. 5 µL of 7 µg/µL 15 min before i.c.v. LPS) was “rescued” and the “short-term memory performance, compound alone (Y Maze)” value (Sprague Dawley rats; i.c.v.) was “reduction in the short-term memory performance”.
In the case of `CCn1c(Cl)nc2c(N)nc(OCCc3ccccc3)nc21` [Compound C2, 8-chloro-9-ethyl-2-phenethoxyadenine], the “cell viability vs. control” value (mixed glial cells [1]; CK cocktail 20 ng/mL 48 h, then ligand 5 nM for 15 min) was 138 ± 1.7%, the “cell viability vs. control” value (mixed glial cells [1]; CK cocktail 20 ng/mL 48 h, then ligand 10 nM for 30 min) was 233 ± 3.4% and the “protection of neurons against neuroinflammatory insult (cell viability)” value (neuronal cells; C1 5.5 µM, C2 10 nM) was “beneficial effects in protecting neurons”. For the same compound, the “cell viability, combination with A2AAR antagonist SCH58261” value (neuronal cells; neurons, C2 10 nM, SCH58261 50 nM) was “did not exhibited a synergic effect”, the “nitrite levels in presence of CK cocktail” value (mixed glial cells [2]; 10 nM, after CK cocktail) was “able to decrease the high nitrite levels” and the “levels of nitrite produced” value (mixed glial cells [2]; 10 nM, alone) was “lower than those obtained in control”. The “cell area and circularity (Hoechst), effect against CK aggression” value (mixed glial cells [3]) was “protective effect”, the “blood brain barrier (BBB) crossing” value (Sprague Dawley rats; inferred from rescue of CNS insult after i.p. injection in rats) was “readily crosses the BBB” and the “short-term memory impairment by LPS (novel arm preference, Y Maze)” value (Sprague Dawley rats; 2.5 mg/kg i.p. 30 min after i.c.v. LPS) was “rescued”. The “short-term memory performance, compound alone (Y Maze)” value (Sprague Dawley rats; 2.5 mg/kg i.p.) was “devoid of any effects in memory performance”.
